Assays:
[1] = system: inside of upper parts of arms; test: Test of a cooling towel (direct spraying), sensory evaluation; type: in vivo, human (panelists)
Method: Those which were air-dried for 10 minutes, 3 hours or 24 hours after spraying were sensory evaluated. The sensory evaluation was carried out by touching the cooling towel with the inside of upper parts of arms, and cooling action at that time was determined. Meanwhile, the evaluation was carried out by five panelists having 5 years or longer experience. […] The results are shown by the total score of the ranking numbers. In other words, smaller total score means to show a better cooling sensation effect.

[2] = system: inside of upper parts of arms; test: Test of a cooling towel (washing processed), sensory evaluation; type: in vivo, human (panelists); details: for total score of the ranking numbers (cooling effect on treated hand towel after washing): 1% in washing detergent
Method: The hand towel thus prepared and those after further air-dried for 24 hours or 48 hours were brought into contact with the inside of upper parts of arms, and the cooling action thereof was determined organoleptically. Meanwhile, the evaluation was carried out by five panelists having 5 years or longer experience. The above compounds, mixtures and menthoxypropanediol were divided into three groups of A to C (group A; […] The results are shown by the total score of the ranking numbers. […] In other words, smaller total score means to show a better cooling sensation effect.

[3] = Group A (5 samples ranked by 5 panelists, smaller = better), direct spraying 1 g of 1% ethanol solution, after 10 min air drying
[4] = Group A, direct spraying, after 3 hr air drying, smaller = better
[5] = Group A, direct spraying, after 24 hr air drying, smaller = better
[6] = Group A (4 samples ranked by 5 panelists, smaller = better), after 6 hr air drying
[7] = Group A, after 24 hr, smaller = better
[8] = Group A, after 48 hr, smaller = better
[9] = Group B, direct spraying, after 10 min air drying, smaller = better
[10] = Group B, direct spraying, after 3 hr air drying, smaller = better
[11] = Group B, direct spraying, after 24 hr air drying, smaller = better
[12] = Group B, after 6 hr, smaller = better
[13] = Group B, after 24 hr, smaller = better
[14] = Group B, after 48 hr, smaller = better
[15] = Group C, direct spraying, after 10 min air drying, smaller = better
[16] = Group C, direct spraying, after 3 hr air drying, smaller = better
[17] = Group C, direct spraying, after 24 hr air drying, smaller = better
[18] = Group C, after 6 hr, smaller = better
[19] = Group C, after 24 hr, smaller = better
[20] = Group C, after 48 hr, smaller = better

## CC1CCC(C(C)C)C(OCCOC(=O)CCC(=O)OC2CC(C)CCC2C(C)C)C1 (stereo not drawn) [Compound 1, l-menthyl-(l-menthoxyethyl)succinic ester]
[1]; [3]
  total score of the ranking numbers (cooling effect on treated hand towel): 18
[1]; [4]
  total score of the ranking numbers (cooling effect on treated hand towel): 12
[1]; [5]
  total score of the ranking numbers (cooling effect on treated hand towel): 11
[2]; [6]
  total score of the ranking numbers (cooling effect on treated hand towel after washing): 11
[2]; [7]
  total score of the ranking numbers (cooling effect on treated hand towel after washing): 10
[2]; [8]
  total score of the ranking numbers (cooling effect on treated hand towel after washing): 13

## CC(C)[C@@H]1CC[C@@H](C)C[C@H]1O [Compound 1-Menthol, l-menthol, reference compound]
[1]; [3]
  total score of the ranking numbers (cooling effect on treated hand towel): 6
[1]; [4]
  total score of the ranking numbers (cooling effect on treated hand towel): 24
[1]; [5]
  total score of the ranking numbers (cooling effect on treated hand towel): 25
[1]; [9]
  total score of the ranking numbers (cooling effect on treated hand towel): 7
[1]; [10]
  total score of the ranking numbers (cooling effect on treated hand towel): 24
[1]; [11]
  total score of the ranking numbers (cooling effect on treated hand towel): 25
[1]; direct spraying, after air drying for 10 minutes
  cooling action (in words): strongest cooling action
[1]; direct spraying, over 10 min to 24 hr
  lasting / consistency of cooling action (in words): less consistent

## CC(C)[C@@H]1CC[C@@H](C)C[C@H]1OCC(O)COC(=O)CCC(=O)O[C@@H]1C[C@H](C)CC[C@H]1C(C)C (stereo partly drawn) [Compound 2, l-menthyl-3-(l-menthoxy)-2-(hydroxypropyl)succinic ester]
[1]; [3]
  total score of the ranking numbers (cooling effect on treated hand towel): 18
[1]; [4]
  total score of the ranking numbers (cooling effect on treated hand towel): 13
[1]; [5]
  total score of the ranking numbers (cooling effect on treated hand towel): 13
[2]; [6]
  total score of the ranking numbers (cooling effect on treated hand towel after washing): 13
[2]; [7]
  total score of the ranking numbers (cooling effect on treated hand towel after washing): 11
[2]; [8]
  total score of the ranking numbers (cooling effect on treated hand towel after washing): 12

## C=C(C)C1CCC(C)CC1OC(=O)CCC(=O)OC1CC(C)CCC1C(C)C (stereo not drawn) [Compound 3, l-menthyl-(l-isopulegyl)succinic ester]
[1]; [9]
  total score of the ranking numbers (cooling effect on treated hand towel): 16
[1]; [10]
  total score of the ranking numbers (cooling effect on treated hand towel): 10
[1]; [11]
  total score of the ranking numbers (cooling effect on treated hand towel): 10
[2]; [12]
  total score of the ranking numbers (cooling effect on treated hand towel after washing): 11
[2]; [13]
  total score of the ranking numbers (cooling effect on treated hand towel after washing): 10
[2]; [14]
  total score of the ranking numbers (cooling effect on treated hand towel after washing): 10

## CC(C)=CCCC(C)CCOC(=O)CCC(=O)OC1CC(C)CCC1C(C)C (stereo not drawn) [Compound 4, l-menthyl-(l-citronellyl)succinic ester]
[1]; [15]
  total score of the ranking numbers (cooling effect on treated hand towel): 16
[1]; [16]
  total score of the ranking numbers (cooling effect on treated hand towel): 18
[1]; [17]
  total score of the ranking numbers (cooling effect on treated hand towel): 16
[2]; [18]
  total score of the ranking numbers (cooling effect on treated hand towel after washing): 10
[2]; [19]
  total score of the ranking numbers (cooling effect on treated hand towel after washing): 12
[2]; [20]
  total score of the ranking numbers (cooling effect on treated hand towel after washing): 11

## CC1CCC(C(C)C)C(OC(=O)CCCC(=O)OCCc2ccccc2)C1 (stereo not drawn) [Compound 6, l-menthyl-(phenylethyl)glutaric ester]
[1]; [9]
  total score of the ranking numbers (cooling effect on treated hand towel): 17
[1]; [10]
  total score of the ranking numbers (cooling effect on treated hand towel): 14
[1]; [11]
  total score of the ranking numbers (cooling effect on treated hand towel): 14
[2]; [12]
  total score of the ranking numbers (cooling effect on treated hand towel after washing): 13
[2]; [13]
  total score of the ranking numbers (cooling effect on treated hand towel after washing): 14
[2]; [14]
  total score of the ranking numbers (cooling effect on treated hand towel after washing): 14

## CC(C)=CCCC(C)CCOC(=O)CCCC(=O)OC1CC(C)CCC1C(C)C (stereo not drawn) [Compound 7, l-menthyl-(l-citronellyl)glutaric ester]
[1]; [15]
  total score of the ranking numbers (cooling effect on treated hand towel): 15
[1]; [16]
  total score of the ranking numbers (cooling effect on treated hand towel): 17
[1]; [17]
  total score of the ranking numbers (cooling effect on treated hand towel): 18

## CC1CCC(C(C)C)C(OCCOC(=O)CCCC(=O)OC2CC(C)CCC2C(C)C)C1 (stereo not drawn) [Compound 8, l-menthyl-(l-menthoxyethyl)-glutaric ester]
[1]; [15]
  total score of the ranking numbers (cooling effect on treated hand towel): 13
[1]; [16]
  total score of the ranking numbers (cooling effect on treated hand towel): 12
[1]; [17]
  total score of the ranking numbers (cooling effect on treated hand towel): 11
[2]; [18]
  total score of the ranking numbers (cooling effect on treated hand towel after washing): 13
[2]; [19]
  total score of the ranking numbers (cooling effect on treated hand towel after washing): 13
[2]; [20]
  total score of the ranking numbers (cooling effect on treated hand towel after washing): 13

## CC1CCC(C(C)C)C(OC(=O)CCCC(=O)OC2CC(C)CCC2C(C)C)C1 (stereo not drawn) [Dimenthylglutaric acid, reference compound]
[1]; [3]
  total score of the ranking numbers (cooling effect on treated hand towel): 22
[1]; [4]
  total score of the ranking numbers (cooling effect on treated hand towel): 20
[1]; [5]
  total score of the ranking numbers (cooling effect on treated hand towel): 21
[1]; [9]
  total score of the ranking numbers (cooling effect on treated hand towel): 22
[1]; [10]
  total score of the ranking numbers (cooling effect on treated hand towel): 20
[1]; [11]
  total score of the ranking numbers (cooling effect on treated hand towel): 19
[1]; [15]
  total score of the ranking numbers (cooling effect on treated hand towel): 22
[1]; [16]
  total score of the ranking numbers (cooling effect on treated hand towel): 21
[1]; [17]
  total score of the ranking numbers (cooling effect on treated hand towel): 23

## CC1CCC(C(C)C)C(OCC(O)CO)C1 (stereo not drawn) [Menthoxypropanediol, l-menthoxypropanediol, reference compound]
[2]; [6]
  total score of the ranking numbers (cooling effect on treated hand towel after washing): 19
[2]; [7]
  total score of the ranking numbers (cooling effect on treated hand towel after washing): 20
[2]; [8]
  total score of the ranking numbers (cooling effect on treated hand towel after washing): 19
[2]; [12]
  total score of the ranking numbers (cooling effect on treated hand towel after washing): 18
[2]; [13]
  total score of the ranking numbers (cooling effect on treated hand towel after washing): 19
[2]; [14]
  total score of the ranking numbers (cooling effect on treated hand towel after washing): 20
[2]; [18]
  total score of the ranking numbers (cooling effect on treated hand towel after washing): 19
[2]; [19]
  total score of the ranking numbers (cooling effect on treated hand towel after washing): 20
[2]; [20]
  total score of the ranking numbers (cooling effect on treated hand towel after washing): 19
[2]; after the washing treatment and 6 hours of air drying
  cooling action (in words): almost no cooling action was observed
